From patent US20260200928A1, “THERAPEUTIC COMPOUNDS” (Sanofi, priority 2022, published 2026)

Biological target: T1, human IL-17A (Homo sapiens, UniProt Q16552)
T1 construct: purchased R&D Systems 7955-IL/CF
T1 sequence (Q16552 24-155): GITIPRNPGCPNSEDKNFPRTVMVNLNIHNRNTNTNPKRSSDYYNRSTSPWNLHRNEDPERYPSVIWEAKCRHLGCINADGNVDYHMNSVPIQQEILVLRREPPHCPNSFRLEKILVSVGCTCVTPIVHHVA
Experiment: IL-17A AlphaLISA competition assay (block of IL-17A binding to its receptor IL-17RA)
Details: mean IC50 (n≥2), block of IL-17A binding to IL-17RA
In short: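 Bead-based AlphaLISA competition in PBS with 0.05% Tween-20 and 0.1% BSA: compound first meets human IL-17A (7.5 nM stock) for 30 min, then IL-17RA/Fc (5 nM stock) for 90 min, all at room temperature, before acceptor/donor bead capture. IC50 fitted 4-parameter, DMSO and 4 μM reference inhibitor as controls; at least duplicate.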

SMILES	IC50
COC[C@H](c1ccnc(NC(=O)C(NC(=O)c2nocc2C)C2CCC(F)CC2)c1)N1C[C@@H](C(F)(F)F)NC1=O (single isomer, unassigned) [Example 284]	0.062 µM
COCC(c1ccnc(NC(=O)[C@@H](NC(=O)c2nnnn2C)[C@H]2CC[C@H](C)CC2)c1)N1C[C@@H](C(F)(F)F)NC1=O (single isomer, unassigned) [Example 93]	0.341 µM
CCn1nccc1C(=O)N[C@H](C(=O)Nc1cc(C(COC)NC(=O)CCC(F)(F)F)ccn1)C1CCC(F)(F)CC1 (single isomer, unassigned) [Example 144]	1.83 µM
C[C@H]1CC[C@H]([C@H](NC(=O)c2nonc2C2CC2)C(=O)Nc2cc(C[C@@H]3C[C@@H](C(F)(F)F)NC3=O)ccn2)CC1 [Example 152, 4-cyclopropyl-N—((S)-1-((1r,4S)-4-methylcyclohexyl)-2-oxo-2-((4-(((3R,5S)-2-oxo-5-(trifluoromethyl)pyrrolidin-3-yl)methyl)pyridin-2-yl)amino)ethyl)-1,2,5-oxadiazole-3-carboxamide]	2.03 µM
Cc1nonc1C(=O)NC(C(=O)Nc1cc(CN2CC(C(F)(F)F)NC2=O)ccn1)C1CCC(F)CC1 [Example 291, N-((S)-1-((1r,4S)-4-fluorocyclohexyl)-2-oxo-2-((4-(((S)-2-oxo-4-(trifluoromethyl)imidazolidin-1-yl)methyl)pyridin-2-yl)amino)ethyl)-4-methyl-1,2,5-oxadiazole-3-carboxamide]	0.619 µM
CCn1nccc1C(=O)N[C@H](C(=O)Nc1cc(C(COC)NC(=O)CCC(F)(F)F)ccn1)C1CCC(F)(F)CC1 (single isomer, unassigned) [Example 138]	0.164 µM
COC[C@H](c1ccnc(NC(=O)[C@@H](NC(=O)c2ccnn2C)C2CCC(F)(F)CC2)c1)N1CC(F)(F)CNC1=O [Example 180, N-((S)-2-((4-((S)-1-(5,5-difluoro-2-oxotetrahydropyrimidin-1(2H)-yl)-2-methoxyethyl)pyridin-2-yl)amino)-1-(4,4-difluorocyclohexyl)-2-oxoethyl)-1-methyl-1H-pyrazole-5-carboxamide]	0.073 µM
Cn1nccc1C(=O)N[C@H](C(=O)Nc1cc(CN2C[C@@H](C(F)(F)F)NC2=O)ccn1)[C@H]1CC[C@@H](C)CC1 [Example 264, 1-Methyl-N—((S)-1-((1s,4R)-4-methylcyclohexyl)-2-oxo-2-((4-(((S)-2-oxo-4-(trifluoromethyl)imidazolidin-1-yl)methyl)pyridin-2-yl)amino)ethyl)-1H-pyrazole-5-carboxamide]	0.099 µM
CCn1nccc1C(=O)NC(C(=O)Nc1cc([C@@H](COC)N2C[C@@H](C(F)(F)F)NC2=O)ccn1)C1CCC(C)(F)CC1 (single isomer, unassigned) [Example 299]	0.072 µM
Cc1nonc1C(=O)N[C@H](C(=O)Nc1cc(CN2C[C@@H](C(F)(F)F)NC2=O)c(F)cn1)[C@H]1CC[C@H](C)CC1 [Example 62, N-((S)-2-((5-fluoro-4-(((S)-2-oxo-4-(trifluoromethyl)-imidazolidin-1-yl)methyl)-pyridin-2-yl)amino)-1-((1r,4S)-4-methylcyclo-hexyl)-2-oxoethyl)-4-methyl-1,2,5-oxadiazole-3-carboxamide]	1.4 µM
CCC(c1ccnc(NC(=O)C(NC(=O)c2ccnn2C)C2CCC(C)CC2)c1)N1CC(C(F)(F)F)NC1=O [Example 259, 1-methyl-N-((S)-1-((1r,4S)-4-methylcyclohexyl)-2-oxo-2-((4-((R)-1-((S)-2-oxo-4-(trifluoromethyl)imidazolidin-1-yl)propyl)pyridin-2-yl)amino)ethyl)-1H-pyrazole-5-carboxamide]	0.006 µM
CC(C)(C)OC(=O)N1CCn2c(ccc2C(=O)N[C@H](C(=O)Nc2cc(CN3C[C@@H](C(F)(F)F)NC3=O)ccn2)[C@H]2CC[C@H](C)CC2)C1 [Example 7, Tert-butyl 6-(((S)-1-((1r,4S)-4-methylcyclohexyl)-2-oxo-2-((4-(((S)-2-oxo-4-(trifluoromethyl)imidazolidin-1-yl)methyl)pyridin-2-yl)amino)ethyl)-carbamoyl)-3,4-dihydropyrrolo[1,2-a]pyrazine-2(1H)-carboxylate]	0.407 µM
COCC(c1ccnc(NC(=O)[C@@H](NC(=O)Cc2cc(C)no2)[C@H]2CC[C@H](C)CC2)c1)N1C[C@@H](C(F)(F)F)NC1=O (single isomer, unassigned) [Example 123]	0.065 µM
COCC(c1ccnc(NC(=O)[C@@H](NC(=O)c2ccnn2C)C2CCC(C)CC2)c1)N1C[C@@H](C(F)(F)F)NC1=O (stereo partly drawn) [Example 76, N-((1S)-2-((4-(2-methoxy-1-((S)-2-oxo-4-(trifluoro-methyl)imidazolidin-1-yl)ethyl)pyridin-2-yl)amino)-1-((1r,4S)-4-methylcyclohexyl)-2-oxoethyl)-1-methyl-1H-pyrazole-5-carboxamide]	0.093 µM
COCC(c1ccnc(NC(=O)[C@@H](NC(=O)c2nonc2C2CC2)[C@H]2CC[C@H](C)CC2)c1)N1C[C@@H](C(F)(F)F)NC1=O (single isomer, unassigned) [Example 58]	0.011 µM
CCn1nccc1C(=O)N[C@H](C(=O)Nc1cc([C@@H](C)N2C[C@@H](C(F)(F)F)NC2=O)ccn1)[C@H]1CC[C@H](C)CC1 [Example 239, 1-ethyl-N-((S)-1-((1r,4S)-4-methylcyclohexyl)-2-oxo-2-((4-((R)-1-((S)-2-oxo-4-(trifluoromethyl)imidazolidin-1-yl)ethyl)pyridin-2-yl)amino)ethyl)-1H-pyrazole-5-carboxamide]	0.016 µM
COC[C@H](c1ccnc(NC(=O)[C@@H](NC(=O)c2nocc2OCC(F)F)C2CCC(F)(F)CC2)c1)N1C[C@@H](C(F)(F)F)NC1=O [Example 192, N-((S)-1-(4,4-difluorocyclohexyl)-2-((4-((S)-2-methoxy-1-((S)-2-oxo-4-(trifluoromethyl)imidazolidin-1-yl)ethyl)pyridin-2-yl)amino)-2-oxoethyl)-4-(2,2-difluoroethoxy)isoxazole-3-carboxamide]	0.105 µM
Cc1cc(COC(=O)N[C@H](C(=O)Nc2cc(CN3C[C@@H](C(F)(F)F)NC3=O)ccn2)C2CCC(F)(F)CC2)no1 [Example 57, (5-Methylisoxazol-3-v)methyl ((S)-1-(4,4-difluorocyclohexyl)-2-oxo-2-((4-(((S)-2-oxo-4-(trifluoromethyl)imidazolidin-1-VI)methyl)pyridin-2-yl)amino)ethyl)carbamate]	1.96 µM
CC(C)n1nccc1C(=O)N[C@H](C(=O)Nc1cc(C[C@@H]2C[C@@H](C(F)(F)F)NC2=O)ccn1)[C@H]1CC[C@H](C)CC1 [Example 154, 1-isopropyl-N—((S)-1-((1r,4S)-4-methylcyclohexyl)-2-oxo-2-((4-(((3R,5S)-2-oxo-5-(trifluoromethyl)pyrrolidin-3-yl)methyl)pyridin-2-yl)amino)ethyl)-1H-pyrazole-5-carboxamide]	0.527 µM
COCC(c1ccnc(NC(=O)[C@@H](NC(=O)c2nocc2C)[C@H]2CC[C@H](C)CC2)c1)N1C[C@@H](C(F)(F)F)NC1=O (single isomer, unassigned) [Example 120]	0.018 µM
CCc1nocc1C(=O)N[C@H](C(=O)Nc1cc([C@@H](COC)N2C[C@@H](C(F)(F)F)NC2=O)ccn1)[C@H]1CCCC(F)(F)C1 (single isomer, unassigned) [Example 306]	0.047 µM
COCC(c1ccnc(NC(=O)C(NC(=O)C(F)(F)C(C)C)C2CCC(C)CC2)c1)N1CC(C(F)(F)F)NC1=O (single isomer, unassigned) [Example 255]	0.071 µM
CC(C)(C)OCC(NC(=O)OCc1ccccc1)C(=O)Nc1cc(CN2C[C@@H](C(F)(F)F)NC2=O)ccn1 (mixture of isomers) [Example 81, Benzyl ((rac)-3-(tert-butoxy)-1-oxo-1-((4-(((S)-2-oxo-4-(trifluoromethyl)imidazolidin-1-yl)methyl)pyridin-2-yl)amino)propan-2-yl)carbamate]	6.14 µM
CCn1nccc1C(=O)NC(C(=O)Nc1cc(C[C@H]2C[C@@H](C(F)(F)F)NC2=O)ccn1)C(C1CC1)C1CC1 (stereo in doubt) [Example 230, N—((S)-1,1-dicyclopropyl-3-oxo-3-((4-(((3S,5S)-2-oxo-5-(trifluoromethyl)-pyrrolidin-3-yl)methyl)pyridin-2-yl)amino)propan-2-yl)-1-ethyl-1H-pyrazole-5-carboxamide]	0.096 µM
Cn1nccc1C(=O)N[C@H](C(=O)Nc1cc([C@H](NC(=O)CCC(F)(F)F)C2CC2)ccn1)C1CCC(F)(F)CC1 [Example 107, N—((S)-2-((4-((R)-cyclopropyl(4,4,4-trifluorobutanamido)methyl)pyridin-2-yl)amino)-1-(4,4-difluorocyclohexyl)-2-oxoethyl)-1-methyl-1H-pyrazole-5-carboxamide]	0.177 µM
COCC(c1ccnc(NC(=O)[C@@H](NC(=O)OC(C)(C)C)[C@H]2CC[C@H](C)CC2)c1)N1C[C@@H](C(F)(F)F)NC1=O (single isomer, unassigned) [Example 65, tert-butyl ((S)-2-((4-((S or R)-2-methoxy-1-((S)-2-oxo-4-(trifluoromethyl)imidazolidin-1-yl)ethyl)pyridin-2-yl)amino)-1-((1r,4S)-4-methylcyclohexyl)-2-oxoethyl)carbamate]	0.522 µM
O=C(NCc1ccccc1)N[C@H](C(=O)Nc1cc(CN2C[C@@H](C(F)(F)F)NC2=O)ccn1)C1CCC(F)(F)CC1 [Example 99, (S)-2-(3-Benzylureido)-2-(4,4-difluorocyclohexyl)-N-(4-(((S)-2-oxo-4-(trifluoromethyl)imidazolidin-1-yl)methyl)pyridin-2-yl)acetamide]	6.79 µM
